{"source": "patent US20090259167A1", "about": "“METHODS AND COMPOSITIONS FOR DOSE-DEPENDENT PHOTODYNAMIC THERAPY OF DISORDERS” (THE GENERAL HOSPITAL CORPORATION, priority 2008, published 2009)", "key": {"[1]": {"assay": "pH and stability of ALA solutions", "format": "physicochemical", "conditions": "unbuffered", "experimental": "(§1) 5-Aminolevulinic acid hydrochloride from Biosynth International Inc. (Naperville, Ill., USA) was diluted in normal saline (0.9% Sodium Chloride, Hospira, Inc., Illinois, USA) into different concentrations. ALA solutions were titrated in halves from 1.000% to 0.0005%. Osmolarity was not corrected. ALA solution pH varied with concentration from acidic to neutral (1.000%≈pH 1; 0.500%≈pH 3; 0.250 to 0.008%≈pH 5; 0.004 to 0.0005%≈pH 7). Normal saline was used as a control (pH=7). […] In this study, ALA solutions were not buffered because buffering can induce a delay in PpIX formation (Bech et al. 1997). Unbuffered solutions were prepared immediately before intradermal injection. A volume of 0.05-cc/cm^2 skin area was injected at a depth of 2 to 4 mm, using a special 4 mm-long 30 gauge needle (TSK STEiJECT, Toshigi-ken, Japan). The beveled outlet of this needle covers the distal 1 mm near its tip."}, "skin": {"system": "skin", "assay": "Clinical examination of inflammatory response to ALA-PDT (635 nm red light)", "format": "in vivo, Yorkshire swine", "source_text": "(§2) Three female domestic Yorkshire swine weighing 30 to 50 kg were used in the study, which was approved by the MGH Institutional Subcommittee for Research Animal Care. Porcine and human skin have similar histology and physiology, with notable differences. Pigs have smaller sebaceous glands and a thicker dermis. However their thick stratum corneum, lack of fur and metabolism of topical or injected ALA are similar to humans (Meyer 1996), (de Blois, Thissen et al. 2001).\nas §1\n(§3) Each animal's flanks were cleansed, clipped of hair, cleansed and rinsed again, dried with a towel, mapped and divided into 4 cm×7 cm rectangular areas for the test spots. Each test area received an injection of a given ALA concentration, with appropriate control sites, which received either no treatments, ALA alone, or light exposure alone. After the ALA injections, the skin surface was wiped clean again. Three hours after ALA administration, each test area was used for repeated measurements of (1) digital fluorescence photography to document the gross distribution of porphyrin synthesis; and (2) 8-mm skin biopsies obtained from at least 2 sites for each condition prior to light exposure, for evaluation of porphyrin distribution by fluorescence microscopy. After the 3-hour-incubation skin biopsies, red light exposures were performed using a 635 nm LED array (Omnilux, Photo Therapeutics, Inc, Cheshire, UK), delivered at 100 mW/cm^2 irradiance. Biopsies were taken from the control sites at the same times as from test sites, to control for the unlikely possibility that the small amount of ALA injected would cause a systemic level sufficient to stimulate remote synthesis of porphyrins. Measurements and biopsies were repeated after 24 hours, prior to euthanasia.\nClinical examination and grading of cutaneous responses were performed before, during and 1 hour after the end of the last red light exposure. This is sufficient time for an acute inflammatory response to develop. The following day, before euthanasia, final clinical evaluation was performed. Inflammatory response was graded from 0 to 3 for each site, where 0 represents no reaction; 1, mild (any redness or edema); 2, moderate (prominent redness and/or edema) and 3, severe reaction (signs of necrosis, blistering, purpura)."}, "[2]": {"system": "porphyrin accumulation in skin", "assay": "Digital fluorescence gross photography of porphyrin accumulation after intradermal ALA", "format": "in vivo, Yorkshire swine", "source_text": "as §2, §1\nFor each concentration, 12 repetitions were performed for statistical validation. One centimeter separated each site of application from others at the same concentration. After ALA administration, the skin was occluded with plastic sheeting (Saran wrap) and covered with aluminum foil, to avoid light exposure during a 3-hour period for ALA metabolism.\nas §3\nFluorescence photography was performed using a 420 nm bandwidth excitation filter, and >600 nm long pass emission filter mounted on a digital camera (Nikon D70, Nikon Corporation, Tokyo, Japan) with fixed-focus and fixed-field with 10 cm field of view. A fluorescent tape (Small Flags—Pink, Redi-Tag Corporation, Cypress, Calif., USA) was attached to the fixed-field area to compare the fluorescence produced from the skin. Fluorescence photography was performed at baseline, after 3 hours of incubation, immediately after red light exposure, and 24 hours after the application of the drug for each ALA application and control test sites.\nEvery gross fluorescent photograph was analyzed using the WCIF—Image J 1.37c software—Wayne Rasband National Institutes of Health, USA. In this software, pixel analysis is transformed into numeric values. […]"}, "[3]": {"system": "porphyrin accumulation in cutaneous structures", "assay": "Fluorescence microscopy of fresh-frozen skin biopsies for porphyrin (PpIX) distribution", "format": "in vivo, Yorkshire swine", "source_text": "as §2, §1, §3\n(§4) From each experimental skin area, a series 8 mm punch biopsies were taken and immediately split vertically in half with a razor blade. For each biopsy, half was prepared as a fresh-frozen specimen to localize the PpIX accumulation by fluorescence microscopy. The other half was processed for routine hematoxylin-eosin (H&E) staining. At baseline (B0), after 3 hours of incubation (B1), and after 24 hours (B2) a biopsy was performed in each area. Biopsies for fluorescence microscopy were also taken from sites receiving light exposure, just after the light was administered. Frozen sections were cut into 15 μm thick samples and observed using fluorescence microscopy Zeiss Axiophot, Carls Zeiss MicroImaging GmbH, Gottinger, Germany at 10× magnification; samples were also imaged by confocal microscopy (True Confocal Scanner—Leica TCSNT, Leica Mikroscopie und Systeme GmbH, Heidelberg, Germany) at 40× magnification. Routine H&E histology was performed to analyze PDT effect within the skin structures. Biopsy sites were separated from each other by at least 1 cm. […]"}, "[4]": {"conditions": "depending on the pH and the concentration of the solution; cited from earlier work"}, "skin structures": {"system": "skin structures", "assay": "Histopathology (H&E) of skin structures 24 hours after ALA-PDT", "format": "in vivo, Yorkshire swine", "source_text": "as §2, §1, §3, §4"}, "[5]": {"conditions": "0.5% injected ALA-PDT, 24 hours"}}, "note": "“Also recorded” adds a separate entry of the source.", "data": [{"molecule": "Cl.NCC(=O)CCC(=O)O", "note": "[ALA, 5-Aminolevulinic acid hydrochloride]", "values": [{"measurement": "ALA solution pH", "setting": "[1]; 0.004 to 0.0005% ALA in normal saline", "value": "~7"}, {"measurement": "ALA solution pH", "setting": "[1]; 0.250 to 0.008% ALA in normal saline", "value": "~5"}, {"measurement": "ALA solution pH", "setting": "[1]; 0.500% ALA in normal saline", "value": "~3"}, {"measurement": "ALA solution pH", "setting": "[1]; 1.000% ALA in normal saline", "value": "~1"}, {"measurement": "lowest injected ALA concentration with clinical reaction (mild erythema)", "setting": "skin; 24 hours after PDT", "value": 0.016, "unit": "%"}, {"measurement": "Nikolski sign", "setting": "skin; all sites", "value": "negative"}, {"measurement": "clinical response after light exposure", "setting": "skin; injected ALA 0.0005% (lowest concentration)", "value": "no significant clinical residuum"}, {"measurement": "clinical response after PDT", "setting": "skin; injected ALA 0.25%-1.00%, necrosis generally after 24 hours", "value": "extensive purpura with skin necrosis"}, {"measurement": "gross skin reaction", "setting": "skin; injected ALA and light exposure, after 24 hours", "value": "much more uniform gross skin reaction"}, {"measurement": "clinical response during red light irradiation", "setting": "skin; injected ALA from 0.016% to 1.0%", "value": "intense vasospasm"}, {"measurement": "clinical response after light exposure", "setting": "skin; injected ALA less or equal to 0.016%, light 3 hours after injection", "value": "only erythematous macules near each injection puncture site"}, {"measurement": "reaction to ALA injection before light exposure", "setting": "skin; intradermal injection, 3-hour incubation", "value": "mild transient “bleb” papule"}, {"measurement": "skin response", "setting": "skin; topical 20% ALA and light exposure, after 24 hours", "value": "non-uniform skin response, with much greater inflammation around hair follicles"}, {"measurement": "porphyrin accumulation by gross fluorescence", "setting": "[2]; 2-4 mm deep injected ALA lower than 0.0005%", "value": "low but detectable level of porphyrin accumulation"}, {"measurement": "lowest injected ALA concentration with positive fluorescence in photographs", "setting": "[2]; 3 hours after intradermal administration, solutions 1.0% to 0.0005%", "value": 0.004, "unit": "%"}, {"measurement": "lowest injected ALA concentration with statistically significantly increased fluorescence vs uninjected control sites (pixel value analysis)", "setting": "[2]; 3 hours incubation", "value": 0.004, "unit": "%"}, {"measurement": "fluorescence compared to control and light only sites", "setting": "[2]; ALA less than or equal to 0.002%, p≦2×10^−5", "value": "significant fluorescence"}, {"measurement": "fluorescence immediately after red light PDT", "setting": "[2]; all sites, 635 nm", "value": "no fluorescence"}, {"measurement": "porphyrin accumulation by gross fluorescence", "setting": "[2]; injected ALA greater than 0.002%", "value": "dose-dependent porphyrin accumulation"}, {"measurement": "lowest injected ALA concentration inducing porphyrin accumulation", "setting": "[3]; down to and including", "value": 0.0005, "unit": "%"}, {"measurement": "injected ALA concentration at which epithelial skin structures (hair follicles, sebaceous glands, epidermis) showed fluorescence", "setting": "[3]; in vivo", "value": "≥ 0.25", "unit": "%"}, {"measurement": "subcutaneous fat fluorescence", "setting": "[3]; injected ALA 0.0005%", "value": "present"}, {"measurement": "vessel fluorescence", "setting": "[3]; injected ALA 0.50%", "value": "Some vessels also fluoresced"}, {"measurement": "epidermal fluorescence", "setting": "[3]; injected ALA 1.0% and 0.5%, prior to light", "value": "Full thickness epidermal fluorescence"}, {"measurement": "fluorescence of superficial and deep hair follicles", "setting": "[3]; injected ALA 1% to 0.03%", "value": "mostly present"}, {"measurement": "epidermal fluorescence", "setting": "[3]; injected ALA below 0.06%", "value": "negative"}, {"measurement": "stratum corneum fluorescence", "setting": "[3]; injected ALA below 0.06%", "value": "positive fluorescence"}, {"measurement": "localisation of porphyrin fluorescence", "setting": "[3]; injected ALA ≦0.002%, 2-4 mm deep", "value": "limited to the area where the drug was injected"}, {"measurement": "eccrine gland porphyrin fluorescence", "setting": "[3]; injected ALA ≧0.03%", "value": "strong porphyrin fluorescence"}, {"measurement": "superficial fat fluorescence", "setting": "[3]; injected ALA, all concentrations tested, fading with dilution", "value": "strong fluorescence"}, {"measurement": "lowest ALA concentration with sebaceous gland fluorescence", "setting": "[3]; injected, prior to light", "value": 0.50, "unit": "%"}, {"measurement": "lowest ALA concentration with positive eccrine gland fluorescence", "setting": "[3]; injected, less intense but still positive", "value": 0.005, "unit": "%"}, {"measurement": "stability of aqueous solutions", "setting": "[4]", "value": "unstable over long periods"}, {"measurement": "fat septae damage", "setting": "skin structures; 0.002% injected ALA-PDT", "value": "Massive fat septae necrosis"}, {"measurement": "damage to hair follicle, adnexal glands and fat", "setting": "skin structures; 0.5% injected ALA-PDT", "value": "Non-selective destruction"}, {"measurement": "epidermis changes", "setting": "skin structures; [5]", "value": "no relevant changes"}, {"measurement": "superficial vessel findings", "setting": "skin structures; [5]", "value": "superficial vessel inflammation with blood stagnation"}, {"measurement": "eccrine gland damage", "setting": "skin structures; all ALA concentrations, more so 1% to 0.06%", "value": "Massive eccrine gland necrosis"}, {"measurement": "fat damage", "setting": "skin structures; all injected ALA concentrations", "value": "observed with all concentrations"}, {"measurement": "epidermis reaction", "setting": "skin structures; all samples, 24 hours after PDT", "value": "little or no reaction"}, {"measurement": "vascular destruction in deep vessels of the fat septae", "setting": "skin structures; injected ALA 0.0005% (most diluted)", "value": "maximal vascular destruction"}, {"measurement": "fat damage intensity", "setting": "skin structures; injected ALA 0.0005-0.016%", "value": "more intense"}, {"measurement": "fat effect at very low concentrations", "setting": "skin structures; injected ALA 0.016 to 0.0005% (≦0.016%), 2-4 mm deep, hydrochloride", "value": "localized fat necrosis without clinical evidence of inflammation; also recorded: targeted fat and deep vessels without clinical inflammation"}, {"measurement": "superficial fat inflammation", "setting": "skin structures; injected ALA 0.06%", "value": "mild inflammation"}, {"measurement": "eccrine gland selectivity of damage", "setting": "skin structures; injected ALA 0.06%, hydrochloride", "value": "selective destruction of some eccrine glands; also recorded: Selective eccrine gland damage; also recorded: selectively targeted eccrine glands; also recorded: Selective reaction of eccrine glands"}, {"measurement": "vascular findings in superficial and deep vessels", "setting": "skin structures; injected ALA 0.25-1.00%, 24 hours after PDT", "value": "extensive perivascular and vascular mixed inflammatory cell infiltrates"}, {"measurement": "vascular PDT reaction", "setting": "skin structures; injected ALA ≧0.25% with high fluence red light", "value": "potent vascular PDT reaction"}, {"measurement": "apocrine gland damage", "setting": "skin structures; injected ALA-PDT", "value": "signs of some preferential damage"}, {"measurement": "perifollicular inflammation", "setting": "skin structures; mainly injected ALA 1%-0.016%", "value": "mild perifollicular inflammation"}]}]}
